In ChEMBL document CHEMBL5608189, “Design and synthesis of unique indole-benzosulfonamide oleanolic acid derivatives as potent antibacterial agents against MRSA” (Eur J Med Chem, 2024):
Values after ≈ are worked out from the molar mass of the structure shown. Active and inactive are the calls of the source. No cut-off for these calls is given here.

How the values were obtained:
Cell membrane = assay: Induction of cell membrane in methicillin-resistant Staphylococcus aureus assessed as increase in fluorescence intensity by measuring number of PI-permeable cells at 8 times MIC measured after 2 hrs by PI staining based flow cytometry analysis (reference value: 5.71); format: cell membranes
Staphylococcus aureus [1] = assay: Antibacterial activity against methicillin-resistant Staphylococcus aureus infected in female C57BL/6 mouse wound model assessed as log reduction in viable bacterial count at 10 mg/kg administered twice on wounds with 6 hrs interval and measured for 7 days; format: functional; conditions: time 7 day
Staphylococcus aureus [2] = assay: Induction of intracellular ROS accumulation in methicillin-resistant Staphylococcus aureus assessed as number of fluorescence cells at 1 times MIC incubated for 6 hrs by DCFH-DA staining based flow cytometry analysis (reference value: 3.88)
Staphylococcus aureus [3] = assay: Induction of morphological changes in methicillin-resistant Staphylococcus aureus assessed as disruption of cell membrane integrity at 8 times MIC incubated for 8 hrs by SEM analysis; format: functional, organism-based
Staphylococcus aureus [4] = assay: Bactericidal activity against Staphylococcus aureus ATCC 29213 measured after 24 hrs; format: functional
[5] = system: Staphylococcus epidermidis; assay: Antibacterial activity against Staphylococcus epidermidis ATCC 12228 assessed as inhibition of bacterial growth at 2 to 4 times MIC measured every 2 hrs for 24 hrs by time kill assay relative to control; format: functional
Staphylococcus aureus [6] = assay: Antibacterial activity against Staphylococcus aureus ATCC 6538 assessed as delay in bacterial growth at 0.5 times MIC measured every 2 hrs for 24 hrs by time kill assay; format: functional, organism-based
Staphylococcus aureus [7] = assay: Induction of intracellular ROS accumulation in methicillin-resistant Staphylococcus aureus assessed as number of fluorescence cells at 8 times MIC incubated for 6 hrs by DCFH-DA staining based flow cytometry analysis (reference value: 3.88)
Staphylococcus aureus [8] = assay: Antibacterial activity against methicillin-resistant Staphylococcus aureus assessed as inhibition of bacterial growth at 2 to 4 times MIC measured every 2 hrs for 24 hrs by time kill assay relative to control; format: functional

CC1(C)CC[C@]2(C(=O)NS(=O)(=O)c3ccc(Cl)cc3)CC[C@]3(C)C(=CC[C@@H]4[C@@]5(C)Cc6c([nH]c7c(C(=O)O)cccc67)C(C)(C)[C@@H]5CC[C@]43C)[C@@H]2C1
Activity (Cell membrane): 46.5 | log(activity) (Staphylococcus aureus [1]): ~1.6 | Activity (Staphylococcus aureus [2]): 1.96 | Activity (Staphylococcus aureus [3]): Active | MBC (Staphylococcus aureus [4]): 2 µM (≈ 1.49 µg/mL) | inhibition (INH) [5]: 100% | Activity (Staphylococcus aureus [6]): Active | Activity (Staphylococcus aureus [7]): 1.99 | inhibition (INH) (Staphylococcus aureus [8]): 100%
